# Experimental data: US20230235374A1, “High Throughput Assays for Detecting Translation Readthrough Inducers” (The Trustees of the University of Pennsylvania, priority 2021, published 2023)
# Read-outs that look alike come from different tables or passages of the source.
# Experiments:
# [1] = tested on: Stop-POST5 complex (RFC-dependent termination); test: smTIRF assay of RFC-dependent peptide and tRNA release; assay type: biochemical, shrimp (Artemia salina); details: saturating RFC (0.65 μM eRF1, 1.3 μM eRF3)
# [2] = tested on: Stop-POST5 complex (RFC-dependent termination); test: as above; assay type: biochemical, shrimp (Artemia salina)
# Procedure: Immobilization of ribosome Stop-POST 5 complexes. PEGylated flow chambers were incubated in 0.5 mg/ml streptavidin for 5 mins and washed with Buffer 4. Biotinylated Stop-POST5 containing FK(atto647)VRQ-tRNA^Gln (Cy3) in the P-site, was formed at room temperature by incubating Stop-POST4, eEF1A, GTP, and Gln-(Cy3)tRNA^Gln for 5 mins and then injected into the streptavidin-coated slide chamber. After a 5 min incubation, excess unbound ribosome was flowed out. Then eRF1/eRF3±TRIDs was injected dynamically at 3 sec while recording. The injection dead time was subtracted for each particle.
# Single-molecule fluorescence imaging. All sm-TIRF studies were carried out at 24° C. All dilutions, complex formation, and single-molecule imaging were carried out in Buffer 4 with an added enzymatic oxygen scavenging system of 2 mM protocatechuic acid (PCA), 50 nM protocatechunate 3,4 dioxygenase (PCD, Sigma Aldrich), 1 mM cyclooctatetraene (COT, Sigma Aldrich), 1 mM 4-nitrobenzyl alcohol (NBA, Sigma Aldrich), and 1.5 mM 6-hydroxy-2,5,7,8-tetramethyl-chromane-2-carboxylic acid (Trolox, Sigma-Aldrich) (Flis et al., Cell reports, 25(10), 2676-2688 (2018).
# Image stacks were recorded at 100 ms frame rate on a custom-built objective-type total internal reflection fluorescence (TIRF) microscope based on a commercial inverted microscope (Eclipse Ti-E, Nikon) and capable of performing alternating-laser excitation (ALEX) between 532 nm and 640 nm laser beams using an acousto-optic tunable filter (AOTF, Chen et al., 2011). For the time-lapse experiment, timing of the movies, programmed into NIS-Elements (Nikon) microscope software, were recorded by illuminating the sample for 50-20 frames at 10 frames per s with 15 s or […] intervening dark intervals. Video recording was started and then eRF1/eRF3±TRIDs was injected from a triggered syringe pump at 3 sec while recording. The injection dead time was subtracted for each particle. Triggering of the shutters, AOTF, and pump was synchronized using LabView scripts driven from the camera exposure signal.
# Data analysis. Collected movies were analyzed by a custom-made software program developed as an ImageJ plugin (Chen et al., Mol. Cell, 42, 367-377 (2011)), and further analyzed using Python. Distributions of peptide and tRNA dissociation times were fit to eq (5), using maximum likelihood estimation (Bevington and Robinson. Data Reduction and Error Analysis for the Physical Sciences. New York: McGraw-Hill, (2002); Woody et al., Biophys. J. 111, 273-282 (2016)), where P is the probability density.
# smTIRF results using Atto(pep)-Cy-Stop-POST5 attached to surface-immobilized ribosomes. Although the distance between the two fluorophores is not close enough to produce FRET, fluorescent pairs could be identified by co-localization on the slide under alternating 532 nm and 640 nm total internal reflection fluorescence (TIRF) illumination. This permits near-simultaneous monitoring of the dynamics of peptide and P-site tRNA release from the Stop-POST5 complex following RFC binding.
# To reduce photobleaching of each fluorophore, time-lapse movies were recorded with bursts of 20 or 50 frames at 100 ms frame intervals interleaved by 20 s intervals with the lasers shuttered. Total recording time for each trial was 20 min.
# FIG. 8A and FIG. 8C show typical frame by frame recordings indicating a loss of signal for both labeled peptide and labeled tRNA after the addition of the RFC to Atto(pep)-Cy(tRNA)-Stop-POST5. Either peptide (a) or tRNA (b) can dissociate first, in approximately equal proportions. Photobleaching of Cy3-labeled tRNA and Atto647-labeled peptide in the absence of eRF1/eRF3 was much slower (FIG. 8E and FIG. 8F). Under the time lapse illumination employed, mean lifetimes for Atto647-peptide and Cy3-tRNA at 0.32 μM eRF1 and 2 μM eRF3 were each 2.45 min. […]
# [3] = tested on: Atto(pep)-Stop-POST5 (RFC-dependent termination); test: Plate reader fluorescence anisotropy assay of pentapeptide release; assay type: biochemical, shrimp (Artemia salina); details: absence of ataluren
# Procedure: Plate reader assays were run in a Tecan F200® 96-well plate reader (Greiner® black, non-binding, chimney flat) equipped with 640 nm excitation and 700 nm polarization filters using 96-well plates. Atto(pep)-Stop-POST5 in Buffer 4 (0.1 μM, 80 μl) containing GTP (1 mM) was added to plate wells±ataluren at 25° C. eRF1 and eRF3 aliquots stored at −80° C. were thawed for 15 s at 37° C. and added directly to a premade ice-cold GTP (1 mM)±ataluren solution in Buffer 4. The resulting release factor solution was incubated at 25° C. for 1 min, and then added quickly in 80 μL portions to the Atto(pep)-Stop-POST5 containing wells with a multichannel pipette to the Atto(pep)-Stop-Posts wells. The final concentrations were: eRF1, 0.025-0.4 μM; eRF3, 0.8 μM; Atto(pep)-Stop-Posts, 0.05 μM. Fluorescence anisotropy decay graphs were fit with GraphPad Prism, using the one phase decay model to obtain peptide dissociation rates.
# Ensemble fluorescence anisotropy results using Atto(pep)-Stop-POST5. The fluorescence anisotropy of the pentapeptidyl moiety of Atto(pep)-Stop-POST5 was quite high (0.22), and decreased following addition of RFC, providing a convenient measure of the rate of pentapeptide release from the ribosome. […] Each such time dependency could be fit to a single exponential, giving the collected rate constants presented in FIG. 9G, in which the rate dependence as a function of RFC concentration was measured at 0, 200, 500, and 1,000 μM ataluren. In the absence of ataluren, EC50 (0.029±0.002 μM) and Vmax (0.31±0.02) values were obtained for pentapeptide release similar to those measured by smTIRF. In addition, as with the smTIRF results, Vmax values were unaffected by added ataluren but EC50 values increased, reaching ˜0.06 μM at 1000 μM.
# Trp-PRE6 complex = test: smFRET translocation of Trp-PRE6 to Trp-POST6; assay type: biochemical; details: 23° C.
# Source text: Changes in FRET (FIGS. 16E-16G) were used to determine the rate of translocation (FIG. 16H) and the residence time of deacylated tRNA dissociation from the E-site (FIG. 16I) as functions of [eEF2.GTP].
# [4] = 0.32 μM eRF1 and 2 μM eRF3, time lapse illumination
# [5] = absence of ataluren, Michaelis-Menten fit
molecule,measurement,setting,value
RFC: release factor complex of eRF1 and eRF3 with GTP catalysing termination,"rate constant, Atto(pep)-Cy(rbsm)-Stop-POST5",[1],0.26 ± 0.03 min⁻¹
same,"rate constant, Atto(rbsm)-Cy(tRNA)-Stop-POST5",[1],0.20 ± 0.03 min⁻¹
same,"mean lifetime, Atto647-peptide",[2]; [4],2.45 min
same,"mean lifetime, Cy3-tRNA",[2]; [4],2.45 min
same,"peptide release rate constants, As 2nd product",[2]; [RFC] 0.016 μM,0.12 ± 0.03 min⁻¹
same,"peptide release rate constants, Overall",[2]; [RFC] 0.016 μM,0.13 ± 0.02 min⁻¹
same,"tRNA release rate constants, As 2nd product",[2]; [RFC] 0.016 μM,0.086 ± 0.023 min⁻¹
same,"tRNA release rate constants, Overall",[2]; [RFC] 0.016 μM,0.10 ± 0.02 min⁻¹
same,"peptide release rate constants, As 2nd product",[2]; [RFC] 0.032 μM,0.15 ± 0.02 min⁻¹
same,"peptide release rate constants, Overall",[2]; [RFC] 0.032 μM,0.16 ± 0.02 min⁻¹
same,"tRNA release rate constants, As 2nd product",[2]; [RFC] 0.032 μM,0.063 ± 0.021 min⁻¹
same,"tRNA release rate constants, Overall",[2]; [RFC] 0.032 μM,0.12 ± 0.02 min⁻¹
same,"peptide release rate constants, As 2nd product",[2]; [RFC] 0.080 μM,0.15 ± 0.02 min⁻¹
same,"peptide release rate constants, Overall",[2]; [RFC] 0.080 μM,0.21 ± 0.02 min⁻¹
same,"tRNA release rate constants, As 2nd product",[2]; [RFC] 0.080 μM,0.12 ± 0.02 min⁻¹
same,"tRNA release rate constants, Overall",[2]; [RFC] 0.080 μM,0.17 ± 0.03 min⁻¹
same,"peptide release rate constants, As 2nd product",[2]; [RFC] 0.166 μM,0.19 ± 0.02 min⁻¹
same,"peptide release rate constants, Overall",[2]; [RFC] 0.166 μM,0.24 ± 0.01 min⁻¹
same,"tRNA release rate constants, As 2nd product",[2]; [RFC] 0.166 μM,0.14 ± 0.03 min⁻¹
same,"tRNA release rate constants, Overall",[2]; [RFC] 0.166 μM,0.18 ± 0.02 min⁻¹
same,"peptide release rate constants, As 2nd product",[2]; [RFC] 0.32 μM,0.24 ± 0.03 min⁻¹
same,"peptide release rate constants, Overall",[2]; [RFC] 0.32 μM,0.26 ± 0.02 min⁻¹
same,"tRNA release rate constants, As 2nd product",[2]; [RFC] 0.32 μM,0.17 ± 0.03 min⁻¹
same,"tRNA release rate constants, Overall",[2]; [RFC] 0.32 μM,0.20 ± 0.02 min⁻¹
same,"peptide release rate constants, As 2nd product",[2]; [RFC] 0.65 μM,0.23 ± 0.04 min⁻¹
same,"peptide release rate constants, Overall",[2]; [RFC] 0.65 μM,0.27 ± 0.03 min⁻¹
same,"tRNA release rate constants, As 2nd product",[2]; [RFC] 0.65 μM,0.23 ± 0.04 min⁻¹
same,"tRNA release rate constants, Overall",[2]; [RFC] 0.65 μM,0.21 ± 0.03 min⁻¹
same,"peptide release rate constants, As 2nd product",[2]; [RFC] 1.61 μM,0.25 ± 0.03 min⁻¹
same,"peptide release rate constants, Overall",[2]; [RFC] 1.61 μM,0.26 ± 0.02 min⁻¹
same,"tRNA release rate constants, As 2nd product",[2]; [RFC] 1.61 μM,0.15 ± 0.02 min⁻¹
same,"tRNA release rate constants, Overall",[2]; [RFC] 1.61 μM,0.20 ± 0.02 min⁻¹
same,"Vmax, peptide dissociation",[2]; [5],~0.27 ± 0.02 min⁻¹
same,"Vmax, tRNA dissociation",[2]; [5],0.20 ± 0.02 min⁻¹
same,EC50,"[2]; absence of ataluren, read-out: EC50, peptide dissociation",~20 nM
same,EC50,"[2]; absence of ataluren, read-out: EC50, tRNA dissociation",~20 nM
same,EC50,[3],29 ± 2 nM
same,"Vmax, pentapeptide release",[3],0.31±0.02
"eEF2: yeast eukaryotic elongation factor 2 (protein, UniProt P32324 1-842, looked up) Elongation factor 2: MVAFTVDQMRSLMDKVTNVRNMSVIAHVDHGKSTLTDSLVQRAGIISAAKAGEARFTDTRKDEQERGITIKSTAISLYSEMSDEDVKEIKQKTDGNSFLINLIDSPGHVDFSSEVTAALRVTDGALVVVDTIEGVCVQTETVLRQALGERIKPVVVINKVDRALLELQVSKEDLYQTFARTVESVNVIVSTYADEVLGDVQVYPARGTVAFGSGLHGWAFTIRQFATRYAKKFGVDKAKMMDRLWGDSFFNPKTKKWTNKDTDAEGKPLERAFNMFILDPIFRLFTAIMNFKKDEIPVLLEKLEIVLKGDEKDLEGKALLKVVMRKFLPAADALLEMIVLHLPSPVTAQAYRAEQLYEGPADDANCIAIKNCDPKADLMLYVSKMVPTSDKGRFYAFGRVFAGTVKSGQKVRIQGPNYVPGKKDDLFIKAIQRVVLMMGRFVEPIDDCPAGNIIGLVGIDQFLLKTGTLTTSETAHNMKVMKFSVSPVVQVAVEVKNANDLPKLVEGLKRLSKSDPCVLTYMSESGEHIVAGTGELHLEICLQDLEHDHAGVPLKISPPVVAYRETVESESSQTALSKSPNKHNRIYLKAEPIDEEVSLAIENGIINPRDDFKARARIMADDYGWDVTDARKIWCFGPDGNGPNLVIDQTKAVQYLHEIKDSVVAAFQWATKEGPIFGEEMRSVRVNILDVTLHADAIHRGGGQIIPTMRRATYAGFLLADPKIQEPVFLVEIQCPEQAVGGIYSVLNKKRGQVVSEEQRPGTPLFTVKAYLPVNESFGFTGELRQATGGQAFPQMVFDHWSTLGSDPLDPTSKAGEIVLAARKRHGMKEEVPGWQEYYDKL","kcat, translocation",Trp-PRE6 complex,1.0 s⁻¹
same,Km,"Trp-PRE6 complex; read-out: Km^eEF2, translocation",0.28 µM
